pIC50: −log10 of the molar value.
biological target: HCV NS3-4A serine protease (full-length NS3-4A protein) (Hepatitis C virus genotype 1a (isolate 1) (HCV), UniProt P26664); assay: HCV NS3-4A protease assay; type: biochemical, HCV genotype 1a; conditions: strain HCV-1, fluorogenic peptide substrate, read-out: Protease assay Ex. 12 IC50
Procedure: The inhibitory activity of certain compounds of Table A against HCV NS3-4A serine protease is determined in a homogenous assay using the full-length NS3-4A protein (genotype 1a, strain HCV-1) and a commercially available internally-quenched fluorogenic peptide substrate as described by Taliani, M., et al. 1996 Anal. Biochem. 240:60-67, which is incorporated by reference in its entirety.

Sequence of HCV NS3-4A serine protease (full-length NS3-4A protein) (P26664 1027-1657): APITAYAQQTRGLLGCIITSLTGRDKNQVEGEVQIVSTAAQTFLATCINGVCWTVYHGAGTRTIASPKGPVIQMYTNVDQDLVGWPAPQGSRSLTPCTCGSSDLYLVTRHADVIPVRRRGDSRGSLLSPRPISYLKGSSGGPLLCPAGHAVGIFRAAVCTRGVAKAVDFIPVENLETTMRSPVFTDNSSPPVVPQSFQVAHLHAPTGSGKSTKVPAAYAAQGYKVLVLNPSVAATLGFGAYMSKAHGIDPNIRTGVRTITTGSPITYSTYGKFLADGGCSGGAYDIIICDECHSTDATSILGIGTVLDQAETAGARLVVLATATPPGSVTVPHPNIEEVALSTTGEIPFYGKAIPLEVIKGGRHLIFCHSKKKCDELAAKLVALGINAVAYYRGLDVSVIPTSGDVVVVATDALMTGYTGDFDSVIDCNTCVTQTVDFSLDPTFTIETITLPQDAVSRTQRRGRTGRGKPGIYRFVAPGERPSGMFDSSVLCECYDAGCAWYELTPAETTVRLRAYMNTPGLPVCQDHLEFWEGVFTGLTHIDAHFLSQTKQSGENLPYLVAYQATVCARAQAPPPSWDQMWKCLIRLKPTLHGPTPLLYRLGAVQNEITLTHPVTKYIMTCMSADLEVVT
Sequence of HCV NS3-4A serine protease (full-length NS3-4A protein) (P26664 1658-1711 partner): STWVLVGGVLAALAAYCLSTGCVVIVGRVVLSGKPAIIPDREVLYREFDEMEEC

SMILES	pIC50
C=C[C@@H]1C[C@]1(NC(=O)[C@@H]1C[C@@]2(CN1C(=O)[C@@H](NC(=O)[C@@H](NC(=O)[C@@H]1CCCCN1C(C)C)C1CCCCC1)C(C)(C)C)C(C)(C)C21CCC1)C(=O)NS(=O)(=O)N(C)C1CCC1 [Compound 49, (5R,8S)-N-[(1R,2S)-1-({[cyclobutyl(methyl)amino]sulfonyl}carbamoyl)-2-vinylcyclopropyl]-7-[(2S)-2-{[(2S)-2-cyclohexyl-2-({[(2S)-1-isopropylpiperidin-2-yl]carbonyl}amino)acetyl]amino}-3,3-dimethylbutanoyl]-10,10-dimethyl-7-azadispiro[3.0.4.1]decane-8-carboxamide]	8.48
C=C[C@@H]1C[C@]1(NC(=O)[C@@H]1C[C@@]2(CN1C(=O)[C@@H](NC(=O)[C@@H](NC(=O)[C@@H]1CCCCN1C(C)C)C1CCCCC1)C(C)(C)C)C(C)(C)C21CCC1)C(=O)NS(=O)(=O)N(C)CC1CC1 [Compound 50, (5R,8S)-7-[(2S)-2-{[(2S)-2-cyclohexyl-2-({[(2S)-1-isopropylpiperidin-2-yl]carbonyl}amino)acetyl]amino}-3,3-dimethylbutanoyl]-N-[(1R,2S)-1-({[(cyclopropylmethyl)(methyl)amino]sulfonyl}carbamoyl)-2-vinylcyclopropyl]-10,10-dimethyl-7-azadispiro[3.0.4.1]decane-8-carboxamide]	8.42
C=C[C@@H]1C[C@]1(NC(=O)[C@@H]1C[C@@]2(CN1C(=O)[C@@H](NC(=O)C(Nc1cccnc1)C(C)(C)C)C(C)(C)C)C(C)(C)C21CCC1)C(=O)NS(=O)(=O)N1CCCC1 (stereo partly drawn) [Compound 51, (5R,8S)-7-[(2S)-2-{[3,3-dimethyl-2-(pyridin-3-ylamino)butanoyl]amino}-3,3-dimethylbutanoyl]-10,10-dimethyl-N-{(1R,2S)-1-[(pyrrolidin-1-ylsulfonyl)carbamoyl]-2-vinylcyclopropyl}-7-azadispiro[3.0.4.1]decane-8-carboxamide]	5.94
C=C[C@@H]1C[C@]1(NC(=O)[C@@H]1C[C@@]2(CN1C(=O)[C@@H](NC(=O)[C@@H](NC(=O)[C@@H]1CCCCN1C(C)C)C1CCCCC1)C(C)(C)C)C(C)(C)C21CCC1)C(=O)NS(=O)(=O)N(C)C1CC1 [Compound 53, (5R,8S)-7-[(2S)-2-{[(2S)-2-cyclohexyl-2-({[(2S)-1-isopropylpiperidin-2-yl]carbonyl}amino)acetyl]amino}-3,3-dimethylbutanoyl]-N-[(1R,2S)-1-({[cyclopropyl(methyl)amino]sulfonyl}carbamoyl)-2-vinylcyclopropyl]-10,10-dimethyl-7-azadispiro[3.0.4.1]decane-8-carboxamide]	8.77
C=C[C@@H]1C[C@]1(NC(=O)[C@@H]1C[C@@]2(CN1C(=O)[C@@H](NC(=O)[C@@H](NC(=O)[C@@H]1CCCCN1C(C)C)C1CCCCC1)C(C)(C)C)C(C)(C)C21CCC1)C(=O)NS(=O)(=O)N(C)OC [Compound 55, (5R,8S)-7-[(2S)-2-{[(2S)-2-cyclohexyl-2-({[(2S)-1-isopropylpiperidin-2-yl]carbonyl}amino)acetyl]amino}-3,3-dimethylbutanoyl]-N-[(1R,2S)-1-({[methoxy(methyl)amino]sulfonyl}carbamoyl)-2-vinylcyclopropyl]-10,10-dimethyl-7-azadispiro[3.0.4.1]decane-8-carboxamide]	8.85
C=C[C@@H]1C[C@]1(NC(=O)[C@@H]1C[C@@]2(CN1C(=O)[C@@H](NC(=O)[C@@H](NC(=O)[C@@H]1CCCCN1C(C)C)C1CCCCC1)C(C)(C)C)C(C)(C)C21CCC1)C(=O)NS(=O)(=O)N(C)CCOC [Compound 56, (5R,8S)-7-[(2S)-2-{[(2S)-2-cyclohexyl-2-({[(2S)-1-isopropylpiperidin-2-yl]carbonyl}amino)acetyl]amino}-3,3-dimethylbutanoyl]-N-[(1R,2S)-1-({[(2-methoxyethyl)(methyl)amino]sulfonyl}carbamoyl)-2-vinylcyclopropyl]-10,10-dimethyl-7-azadispiro[3.0.4.1]decane-8-carboxamide]	8.10
C=C[C@@H]1C[C@]1(NC(=O)[C@@H]1C[C@@]2(CN1C(=O)[C@@H](NC(=O)[C@@H](NC(=O)[C@@H]1CCCCN1C(C)C)C1CCCCC1)C(C)(C)C)C(C)(C)C21CCC1)C(=O)NS(=O)(=O)NC1CCC1 [Compound 57, (5R,8S)-N-[(1R,2S)-1-{[(cyclobutylamino)sulfonyl]carbamoyl}-2-vinylcyclopropyl]-7-[(2S)-2-{[(2S)-2-cyclohexyl-2-({[(2S)-1-isopropylpiperidin-2-yl]carbonyl}amino)acetyl]amino}-3,3-dimethylbutanoyl]-10,10-dimethyl-7-azadispiro[3.0.4.1]decane-8-carboxamide]	8.19
C=C[C@@H]1C[C@]1(NC(=O)[C@@H]1C[C@@]2(CN1C(=O)[C@@H](NC(=O)[C@@H](NC(=O)[C@@H]1CCCCN1C(C)C)C1CCCC1)C(C)(C)C)C(C)(C)C21CCC1)C(=O)NS(=O)(=O)N1CCCC1 [Compound 58, (5R,8S)-7-[(2S)-2-{[(2S)-2-cyclopentyl-2-({[(2S)-1-isopropylpiperidin-2-yl]carbonyl}amino)acetyl]amino}-3,3-dimethylbutanoyl]-10,10-dimethyl-N-{(1R,2S)-1-[(pyrrolidin-1-ylsulfonyl)carbamoyl]-2-vinylcyclopropyl}-7-azadispiro[3.0.4.1]decane-8-carboxamide]	8.46
C=C[C@@H]1C[C@]1(NC(=O)[C@@H]1C[C@@]2(CN1C(=O)[C@@H](NC(=O)[C@@H](NC(=O)[C@@H]1CCCN1C(C)C)C1CCCC1)C(C)(C)C)C(C)(C)C21CCC1)C(=O)NS(=O)(=O)N1CCCC1 [Compound 59, (5R,8S)-7-[(2S)-2-{[(2S)-2-cyclopentyl-2-({[(2S)-1-isopropylpyrrolidin-2-yl]carbonyl}amino)acetyl]amino}-3,3-dimethylbutanoyl]-10,10-dimethyl-N-{(1R,2S)-1-[(pyrrolidin-1-ylsulfonyl)carbamoyl]-2-vinylcyclopropyl}-7-azadispiro[3.0.4.1]decane-8-carboxamide]	8.46
C=C[C@@H]1C[C@]1(NC(=O)[C@@H]1C[C@@]2(CN1C(=O)[C@@H](NC(=O)CC1(CC(N)=O)CCCCC1)C(C)(C)C)C(C)(C)C21CCC1)C(=O)NS(=O)(=O)N1CCCC1 [Compound 60, (5R,8S)-7-[(2S)-2-({[1-(2-amino-2-oxoethyl)cyclohexyl]acetyl}amino)-3,3-dimethylbutanoyl]-10,10-dimethyl-N-{(1R,2S)-1-[(pyrrolidin-1-ylsulfonyl)carbamoyl]-2-vinylcyclopropyl}-7-azadispiro[3.0.4.1]decane-8-carboxamide]	5.90
C=C[C@@H]1C[C@]1(NC(=O)[C@@H]1C[C@@]2(CN1C(=O)[C@@H](NC(=O)CC1(CC#N)CCCCC1)C(C)(C)C)C(C)(C)C21CCC1)C(=O)NS(=O)(=O)N1CCCC1 [Compound 61, (5R,8S)-7-[(2S)-2-({[1-(cyanomethyl)cyclohexyl]acetyl}amino)-3,3-dimethylbutanoyl]-10,10-dimethyl-N-{(1R,2S)-1-[(pyrrolidin-1-ylsulfonyl)carbamoyl]-2-vinylcyclopropyl}-7-azadispiro[3.0.4.1]decane-8-carboxamide]	6.12
C=C[C@@H]1C[C@]1(NC(=O)[C@@H]1C[C@@]2(CN1C(=O)[C@@H](NC(=O)[C@@H](NC(=O)[C@@H]1CCCN1C(C)C)C1CCCCC1)C(C)(C)C)C(C)(C)C21CCC1)C(=O)NS(=O)(=O)N(CC)CC [Compound 62, (5R,8S)-7-[(2S)-2-{[(2S)-2-cyclohexyl-2-({[(2S)-1-isopropylpyrrolidin-2-yl]carbonyl}amino)acetyl]amino}-3,3-dimethylbutanoyl]-N-[(1R,2S)-1-{[(diethylamino)sulfonyl]carbamoyl}-2-vinylcyclopropyl]-10,10-dimethyl-7-azadispiro[3.0.4.1]decane-8-carboxamide]	9.00
C=C[C@@H]1C[C@]1(NC(=O)[C@@H]1C[C@@]2(CN1C(=O)[C@@H](NC(=O)[C@@H](NC(=O)[C@@H]1CCCN1CC)C1CCCCC1)C(C)(C)C)C(C)(C)C21CCC1)C(=O)NS(=O)(=O)N(CC)CC [Compound 63, (5R,8S)-7-[(2S)-2-{[(2S)-2-cyclohexyl-2-({[(2S)-1-ethylpyrrolidin-2-yl]carbonyl}amino)acetyl]amino}-3,3-dimethylbutanoyl]-N-[(1R,2S)-1-{[(diethylamino)sulfonyl]carbamoyl}-2-vinylcyclopropyl]-10,10-dimethyl-7-azadispiro[3.0.4.1]decane-8-carboxamide]	8.92
C=C[C@@H]1C[C@]1(NC(=O)[C@@H]1C[C@@]2(CN1C(=O)[C@@H](NC(=O)[C@@H](NC(=O)[C@@H]1CCCCN1C1CCCC1)C1CCCCC1)C(C)(C)C)C(C)(C)C21CCC1)C(=O)NS(=O)(=O)N(CC)CC [Compound 64, (5R,8S)-7-[(2S)-2-{[(2S)-2-cyclohexyl-2-({[(2S)-1-cyclopentylpiperidin-2-yl]carbonyl}amino)acetyl]amino}-3,3-dimethylbutanoyl]-N-[(1R,2S)-1-{[(diethylamino)sulfonyl]carbamoyl}-2-vinylcyclopropyl]-10,10-dimethyl-7-azadispiro[3.0.4.1]decane-8-carboxamide]	8.70
C=C[C@@H]1C[C@]1(NC(=O)[C@@H]1C[C@@]2(CN1C(=O)[C@@H](NC(=O)[C@@H](NC(=O)[C@H]1CCCCN1C(C)C)C1CCCCC1)C(C)(C)C)C(C)(C)C21CCC1)C(=O)NS(=O)(=O)N(CC)CC [Compound 65, (5R,8S)-7-[(2S)-2-{[(2S)-2-cyclohexyl-2-({[(2R)-1-isopropylpiperidin-2-yl]carbonyl}amino)acetyl]amino}-3,3-dimethylbutanoyl]-N-[(1R,2S)-1-{[(diethylamino)sulfonyl]carbamoyl}-2-vinylcyclopropyl]-10,10-dimethyl-7-azadispiro[3.0.4.1]decane-8-carboxamide]	8.35

Source: patent publication US8613914B2, “Peptidomimetic sulfamide compounds and antiviral uses thereof” (Novartis AG, priority 2009, dated 2013)
